Assay results taken from ChEMBL document CHEMBL5150046, “Discovery of a Series of 5-Amide-1H-pyrazole-3-carboxyl Derivatives as Potent P2Y14R Antagonists with Anti-Inflammatory Characters” (J Med Chem, 2022).
pIC50: −log10 of the molar value.

Tests used:
[1] = biological target: T1, P2Y purinoceptor 14 (Homo sapiens) (UniProt Q15391)
T1 sequence (whole entry): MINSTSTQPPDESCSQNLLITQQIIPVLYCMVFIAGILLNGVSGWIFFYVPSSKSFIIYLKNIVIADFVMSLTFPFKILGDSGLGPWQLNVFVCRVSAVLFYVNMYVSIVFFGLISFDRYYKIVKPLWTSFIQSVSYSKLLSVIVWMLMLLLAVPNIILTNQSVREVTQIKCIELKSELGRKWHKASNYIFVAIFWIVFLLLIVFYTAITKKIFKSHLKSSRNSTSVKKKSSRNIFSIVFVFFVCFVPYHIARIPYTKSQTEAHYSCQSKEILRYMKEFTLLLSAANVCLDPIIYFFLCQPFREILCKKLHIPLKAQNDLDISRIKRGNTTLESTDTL

P2Y purinoceptor 14 = biological target: T2, P2Y purinoceptor 14 (Homo sapiens, UniProt Q15391); assay: Antagonist activity at P2Y14R (unknown origin) expressed in HEK293 cells assessed as inhibition of forskolin-stimulated cAMP accumulation incubated in presence of IBMX by cAMP-glo assay; format: functional, cell-based
T2 sequence (Q15391 whole entry): T1 sequence (whole entry)

[2] = Metabolic stability in human liver microsomes assessed as half life at 2 ug/ml preincubated for 5 mins followed by NADPH addition and measured upto 45 mins by LC-MS/MS analysis; format: ADME, Microsome; conditions: dose 2 µg/ml, time < 50 min
[3] = Oral bioavailability in Sprague-Dawley rat at 10 mg/kg measured for 24 hrs; format: ADME, organism-based; conditions: in vivo
[4] = (§1) Inhibition of caspase-1 mediated pyroptosis in LPS/ATP induced PMA-differentiated human THP-1 cells assessed as dead cells at 10 uM pretreated for 24 hrs followed by LPS addition for 3 hrs and further incubated for 1 hr with ATP by caspase-1/PI staining based flow cytometry analysis (reference value: 22.5%); format: functional; set-up: scale not given: the % may be the effect or the level left; conditions: time 28 hrs
[5] = Aqueous solubility of the compound in double distilled water at pH 7 incubated for 24 hrs by UV-3000 absorption spectrometry analysis; format: physicochemical; conditions: double distilled water, pH 7
[6] = as §1, with “live” for “dead”, “43.3%)” for “22.5%)”; format: functional; set-up: scale not given: the % may be the effect or the level left; conditions: time 28 hrs
[7] = as §1, with “late apoptotic” for “dead”, “16.3%)” for “22.5%)”; format: functional; set-up: scale not given: the % may be the effect or the level left; conditions: time 28 hrs
[8] = as §1, with “early apoptotic” for “dead”, “17.9%)” for “22.5%)”; format: functional; set-up: scale not given: the % may be the effect or the level left; conditions: time 28 hrs
[9] = Aqueous solubility of the compound in simulated gastric fluid without pepsin at pH 1.2 incubated for 24 hrs by UV-3000 absorption spectrometry analysis; format: physicochemical; conditions: simulated gastric fluid without pepsin, pH 1.2
[10] = Aqueous solubility of the compound in simulated intestinal fluid without trypsin at pH 6.8 incubated for 24 hrs by UV-3000 absorption spectrometry analysis; format: physicochemical; conditions: simulated intestinal fluid without trypsin, pH 6.8
[11] = Aqueous solubility of the compound in PBS at pH 7.4 incubated for 24 hrs by UV-3000 absorption spectrometry analysis; format: physicochemical; conditions: PBS, pH 7.4
P2Y purinoceptor 12 = P2Y purinoceptor 12 (Homo sapiens, UniProt Q9H244); assay: Antagonist activity at P2Y12R (unknown origin) expressed in CHO cells assessed as inhibition of forskolin-stimulated cAMP accumulation incubated for 15 mins in presence of IBMX by chromatography; format: functional, cell-based
P2Y purinoceptor 6 = P2Y purinoceptor 6 (Homo sapiens, UniProt Q15077)
[12] = HEK293, filed as antagonist, dose 100.0 nM

P2Y purinoceptor 6, sequence (Q15077 whole entry): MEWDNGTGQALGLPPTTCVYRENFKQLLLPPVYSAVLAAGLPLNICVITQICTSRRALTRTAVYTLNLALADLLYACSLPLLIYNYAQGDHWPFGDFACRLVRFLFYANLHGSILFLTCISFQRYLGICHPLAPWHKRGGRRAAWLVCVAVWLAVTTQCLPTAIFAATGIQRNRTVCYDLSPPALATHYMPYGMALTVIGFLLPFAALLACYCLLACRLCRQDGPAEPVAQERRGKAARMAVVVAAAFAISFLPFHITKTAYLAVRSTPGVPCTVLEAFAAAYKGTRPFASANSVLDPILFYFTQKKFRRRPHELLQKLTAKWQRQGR
P2Y purinoceptor 12, sequence (Q9H244 whole entry): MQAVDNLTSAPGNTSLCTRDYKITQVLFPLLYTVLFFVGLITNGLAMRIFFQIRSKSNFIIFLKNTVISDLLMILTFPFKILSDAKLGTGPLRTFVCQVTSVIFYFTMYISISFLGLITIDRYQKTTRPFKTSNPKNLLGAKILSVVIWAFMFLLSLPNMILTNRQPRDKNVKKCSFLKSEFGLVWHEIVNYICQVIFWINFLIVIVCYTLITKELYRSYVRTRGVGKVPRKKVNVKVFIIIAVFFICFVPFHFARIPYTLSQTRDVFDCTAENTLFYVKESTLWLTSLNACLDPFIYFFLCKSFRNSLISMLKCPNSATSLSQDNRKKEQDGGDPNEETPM

Cc1ccc(C(=O)Nc2cc(C(=O)O)nn2Cc2ccc(F)cc2)o1
inhibition [1, 12]: 43.6%

O=C(Nc1cc(C(=O)O)nn1Cc1ccc(F)cc1)c1cccnc1
inhibition ([1]; HEK293, dose 100.0 nM): 27.4%

Cc1ccc(C(=O)Nc2cc(C(=O)O)nn2Cc2ccccc2C(F)(F)F)cc1
inhibition [1, 12]: 93% | pIC50 (P2Y purinoceptor 14): 8.32

O=C(O)c1cc(-c2ccc(C3CCNCC3)cc2)c2ccc(-c3ccc(C(F)(F)F)cc3)cc2c1 [PPTN]
half-life at 2 ug/ml [2]: 46 min | bioavailability [3]: 5% | Activity [4]: 11.2% | solubility at 24 h [5]: < 5 µg/mL | Activity [6]: 79.8% | Activity [7]: 4.33% | Activity [8]: 4.68% | solubility at 24 h [9]: < 5 µg/mL | solubility at 24 h [10]: < 5 µg/mL | solubility at 24 h [11]: < 5 µg/mL | pIC50 (P2Y purinoceptor 12): < 5.00

O=C(O)c1cc(NC(=O)c2ccccc2F)n(Cc2ccc(F)cc2)n1
inhibition ([1]; HEK293, dose 100.0 nM): 20.1%

Cc1ccc(C(=O)Nc2cc(C(=O)O)nn2Cc2cc(F)cc(F)c2)cc1
inhibition [1, 12]: 79.8% | pIC50 (P2Y purinoceptor 14): 7.39

O=C(Nc1cc(C(=O)O)nn1Cc1ccc(F)cc1)c1ccc(C(F)(F)F)cc1
inhibition ([1]; HEK293, dose 100.0 nM): 31.4%

CC(C)(C)c1ccc(C(=O)Nc2cc(C(=O)O)nn2Cc2ccc(F)cc2)cc1
inhibition ([1]; HEK293, dose 100.0 nM): 3.05%

Cc1ccc(C(=O)Nc2cc(C(=O)O)nn2Cc2ccccc2F)cc1
inhibition [1, 12]: 58.5% | pIC50 (P2Y purinoceptor 14): 6.96

Cc1ccc(C(=O)Nc2cc(C(=O)O)nn2Cc2ccc(F)cc2)cn1
inhibition [1, 12]: 53.7%

CCOC(=O)c1cc(NC(=O)c2ccc(C)cc2)n(Cc2ccc(F)cc2)n1
inhibition [1, 12]: 68.3%

S=C=Nc1cccc(NC(=S)NCCCCNC(=S)Nc2cccc(N=C=S)c2)c1
pIC50 (P2Y purinoceptor 6): 4.40

CC(=O)c1ccc(Cn2nc(C(=O)O)cc2NC(=O)c2ccc(C)cc2)cc1
inhibition [1, 12]: 66.3% | pIC50 (P2Y purinoceptor 14): 7.17

Cc1ccc(C(=O)Nc2cc(C(=O)O)nn2Cc2ccc(F)cc2)s1
inhibition [1, 12]: 77.9%

N#Cc1ccc(C(=O)Nc2cc(C(=O)O)nn2Cc2ccc(F)cc2)cc1
inhibition ([1]; HEK293, dose 100.0 nM): 22.4%

Cc1ccc(CC(=O)Nc2cc(C(=O)O)nn2Cc2ccc(F)cc2)cc1
inhibition ([1]; HEK293, dose 100.0 nM): 28.5%
